Data as given in paper PMC10435442, “Developing multitarget coumarin based anti-breast cancer agents: synthesis and molecular modeling study” (Scientific Reports, 2023).
In brackets after ≈: the same amount, converted by molar mass. Several values for one entry are separate records, joined by “and”; a condition that tells them apart may be missing. Equal values may be shown once. Read-outs that look alike come from different tables or passages of the source.

Legend:
EGFR = EGFR (Homo sapiens, UniProt P00533); assay: In vitro EGFR enzyme inhibition assay (ELISA); settings: for EGFR %inh: lab report 01-11-2021; for inhibition at 10 pg/mL / inhibition at 0.0001 µg/mL / inhibition at 0.001 µg/mL / inhibition at 0.01 µg/mL: read-out: EGFR %inh
Chain of EGFR (P00533 25-1210): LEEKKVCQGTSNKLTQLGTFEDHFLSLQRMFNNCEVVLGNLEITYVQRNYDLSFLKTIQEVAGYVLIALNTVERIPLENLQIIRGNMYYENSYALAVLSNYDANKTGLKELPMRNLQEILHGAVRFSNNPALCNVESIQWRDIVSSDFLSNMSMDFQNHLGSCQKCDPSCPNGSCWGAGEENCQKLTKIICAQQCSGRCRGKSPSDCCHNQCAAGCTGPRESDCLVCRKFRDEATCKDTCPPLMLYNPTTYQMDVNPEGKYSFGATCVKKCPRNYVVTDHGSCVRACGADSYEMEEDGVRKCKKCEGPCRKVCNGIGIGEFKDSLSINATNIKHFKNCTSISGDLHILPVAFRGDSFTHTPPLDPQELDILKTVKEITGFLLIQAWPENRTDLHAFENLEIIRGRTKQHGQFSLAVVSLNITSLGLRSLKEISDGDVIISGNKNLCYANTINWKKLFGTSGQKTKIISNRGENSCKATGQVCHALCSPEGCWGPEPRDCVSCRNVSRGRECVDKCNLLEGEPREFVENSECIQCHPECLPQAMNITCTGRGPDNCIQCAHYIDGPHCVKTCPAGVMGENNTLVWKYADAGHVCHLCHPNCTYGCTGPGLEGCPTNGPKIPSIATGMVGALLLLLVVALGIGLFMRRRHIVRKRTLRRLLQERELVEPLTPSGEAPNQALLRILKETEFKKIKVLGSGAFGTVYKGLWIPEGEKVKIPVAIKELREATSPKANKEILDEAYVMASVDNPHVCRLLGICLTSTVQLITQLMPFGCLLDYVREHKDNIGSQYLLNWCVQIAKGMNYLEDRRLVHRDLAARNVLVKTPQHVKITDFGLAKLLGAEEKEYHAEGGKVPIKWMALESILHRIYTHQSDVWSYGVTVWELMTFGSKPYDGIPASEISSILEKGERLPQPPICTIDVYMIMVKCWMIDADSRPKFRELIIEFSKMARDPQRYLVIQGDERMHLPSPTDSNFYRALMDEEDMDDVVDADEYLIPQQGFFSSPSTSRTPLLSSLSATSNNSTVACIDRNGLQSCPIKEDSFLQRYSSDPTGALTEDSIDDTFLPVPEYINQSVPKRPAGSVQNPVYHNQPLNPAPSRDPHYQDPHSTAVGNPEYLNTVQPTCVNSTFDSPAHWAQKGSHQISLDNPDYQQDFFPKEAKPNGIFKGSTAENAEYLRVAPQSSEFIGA

MDA-MB-231 [1] = assay: MTT cytotoxicity assay, MDA-MB-231; settings: for IC50: Homo sapiens; for % viability: MDA
MCF-10A = assay: MTT cytotoxicity assay, nonmalignant MCF-10A; settings: read-out: MCF-10A IC50; MTT, nonmalignant MCF-10A;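 also: MTT assay with absorbance read at 570 nm after 48 h exposure of cells to serial compound concentrations at 37 °C, testing selectivity against nonmalignant versus cancer cells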
aromatase (ARO) = target: T1, aromatase (ARO) (Homo sapiens, UniProt P11511); assay: In vitro aromatase (ARO) enzyme inhibition assay (ELISA)
T1 sequence (P11511 1-503): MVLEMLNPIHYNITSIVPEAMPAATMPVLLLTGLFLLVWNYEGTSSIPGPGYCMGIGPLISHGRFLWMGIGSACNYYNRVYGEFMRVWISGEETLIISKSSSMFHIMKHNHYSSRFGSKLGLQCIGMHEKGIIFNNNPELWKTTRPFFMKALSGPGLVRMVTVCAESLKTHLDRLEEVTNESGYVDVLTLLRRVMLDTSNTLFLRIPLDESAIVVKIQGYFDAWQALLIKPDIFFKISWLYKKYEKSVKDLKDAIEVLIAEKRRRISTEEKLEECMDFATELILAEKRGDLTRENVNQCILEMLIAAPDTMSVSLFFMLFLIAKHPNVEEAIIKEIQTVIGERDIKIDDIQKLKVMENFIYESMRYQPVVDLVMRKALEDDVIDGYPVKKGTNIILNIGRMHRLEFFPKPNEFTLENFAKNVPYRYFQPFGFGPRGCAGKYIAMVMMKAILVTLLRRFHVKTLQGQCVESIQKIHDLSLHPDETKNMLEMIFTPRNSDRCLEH

MCF-7 = assay: MTT cytotoxicity assay, MCF-7; settings: for IC50: Homo sapiens
in vitro = settings: human, MCF-10A cells (nonmalignant breast)
MDA-MB-231 [2] = assay: DNA flow cytometric cell cycle analysis, MDA-MB-231; assay type: cell-based, human; settings: for cell cycle arrest at S phase / increase of apoptotic cells in pre-G1 phase: MDA-MB-231, compared to control
Caspase-9 = Caspase-9 level (ELISA) in treated cells; assay type: cell-based, human; settings: MDA-MB-231 cells
Bcl-2 = Bcl-2 level (ELISA) in treated cells; assay type: cell-based, human; settings: MDA-MB-231 cells
Bax = Bax level (ELISA) in treated cells; assay type: cell-based, human; settings: MDA-MB-231 cells
MDA-MB-231 [3] = assay: Annexin V-FITC/PI dual staining apoptosis assay, MDA-MB-231; assay type: cell-based, human; settings: for % Apoptosis Early / % Apoptosis Late / % Apoptosis Total / % Necrosis: MDA-MB-231
[4] = MDA-MB-231, read-out: MDA-MBA-231 IC50
[5] = MDA-MB-231, read-out: cytotoxicity_IC50 MDA
[6] = MCF7, read-out: cytotoxicity_IC50 mcf7
[7] = EGFR IC50, lab report 01-09-2021, 04 compounds, reference Erlotinib

O=C(OCc1cc(=O)oc2cc(O)ccc12)c1ccccc1 [Compound 2, (7-Hydroxy-2-oxo-2H-chromen-4-yl)methyl benzoate]
IC50 (EGFR; EGFR IC50, lab report 01-11-2021, 10 compounds): 864 nM
IC50 (EGFR; EGFR inhibition IC50): 864 ± 54 nM
EGFR %inh (EGFR; conc 0.01 (unit not given)): 20%
EGFR %inh (EGFR; conc 0.1 (unit not given)): 41%
EGFR %inh (EGFR; conc 1 (unit not given)): 63%
EGFR %inh (EGFR; conc 10 (unit not given)): 84%
Percentage above Reference IC50 (potency relative to erlotinib) (EGFR; reference Erlotinib): 9.722%
IC50 (MDA-MB-231 [1]; [4]): 51900 ± 840 nM
IC50 (MDA-MB-231 [1]; [5]): 15.4 ± 0.84 µg/mL
% viability (MDA-MB-231 [1]; 0.4ug (log conc. -0.41)): 75.87% and 75.875%
% viability (MDA-MB-231 [1]; 1.6ug (log conc. 0.19)): 65.56% and 65.561%
% viability (MDA-MB-231 [1]; 6.25ug (log conc. 0.8)): 57.358% and 57.36%
% viability (MDA-MB-231 [1]; 25ug (log conc. 1.4)): 47.527% and 47.53%
% viability (MDA-MB-231 [1]; 100ug (log conc. 2)): 36.5501% and 36.55%
IC50 (MCF-10A): 186000 ± 2680 nM
IC50 (aromatase (ARO); ARO inhibition IC50): 216 ± 10 nM
IC50 (aromatase (ARO); Aromatase IC50, lab report 14-12-2020): 216 nM
inhibition at 10 pg/mL (aromatase (ARO); read-out: %inh): 37%
inhibition at 0.0001 µg/mL (aromatase (ARO); read-out: %inh): 54%
inhibition at 0.001 µg/mL (aromatase (ARO); read-out: %inh): 68%
inhibition at 0.01 µg/mL (aromatase (ARO); read-out: %inh): 89%
IC50 (MCF-7; MCF7, read-out: MCF-7 IC50): 6000 ± 110 nM
IC50 (MCF-7; [6]): 1.78 ± 0.11 µg/mL
% viability (MCF-7; MCF7, 0.4ug): 58.765%
% viability (MCF-7; MCF7, 1.6ug): 52.469%
% viability (MCF-7; MCF7, 6.3ug): 41.79%
% viability (MCF-7; MCF7, 25ug): 32.963%
% viability (MCF-7; MCF7, 100ug): 21.0494%
IC50 at 48 h (in vitro): 55 ± 2.68 µg/mL (≈ 186 µM)
viability at 48 h, 0.4 ug (in vitro): 88%
viability at 48 h, 1.6 ug (in vitro): 77.2%
viability at 48 h, 6.25 ug (in vitro): 66.5%
viability at 48 h, 25 ug (in vitro): 57.6%
viability at 48 h, 100 ug (in vitro): 44.4%

COc1ccccc1C(=O)OCc1cc(=O)oc2cc(OCC(=O)c3ccc(Cl)cc3)ccc12 [Compound 12, {7-[2-(4-Chlorophenyl)-2-oxoethoxy]-2-oxo-2H-chromen-4-yl}methyl 2-methoxybenzoate]
Comment (cell cycle phase of growth arrest) (MDA-MB-231 [2]; MDA): cell growth arrest@ G1/S
DNA content %G0-G1 (MDA-MB-231 [2]; MDA): 63.58%
DNA content %Pre-G1 (MDA-MB-231 [2]; MDA): 46.28%
DNA content %S (MDA-MB-231 [2]; MDA): 29.97%
%G0-G1 (MDA-MB-231 [2]; MDA-MB-231, IC50 concentration): 63.58^abc ^ADE %
%Pre-G1 (MDA-MB-231 [2]; MDA-MB-231, IC50 concentration): 46.28^cdg ^ABC %
%S (MDA-MB-231 [2]; MDA-MB-231, IC50 concentration): 29.97 ^BDF %
cell cycle arrest at S phase (MDA-MB-231 [2]): 1.08 folds
increase of apoptotic cells in pre-G1 phase (MDA-MB-231 [2]): 22.46 folds
IC50 (EGFR; [7]): 177 nM
IC50 (EGFR; EGFR inhibition IC50): 177 ± 1.8 nM
inhibition at 10 pg/mL (EGFR): 32%
inhibition at 0.0001 µg/mL (EGFR): 50%
inhibition at 0.001 µg/mL (EGFR): 73%
inhibition at 0.01 µg/mL (EGFR): 88%
Percentage above Reference IC50 (potency relative to erlotinib) (EGFR; reference Erlotinib): 81.92%
Caspase-9 Conc. (Caspase-9): 19.16±0.41^df ng/ml
IC50 (MDA-MB-231 [1]; [4]): 3500 ± 90 nM
IC50 (MDA-MB-231 [1]; [5]): 1.71 ± 0.09 µg/mL
% viability (MDA-MB-231 [1]; 0.4ug (log conc. -0.41)): 56.517%
% viability (MDA-MB-231 [1]; 1.6ug (log conc. 0.19)): 51.229%
% viability (MDA-MB-231 [1]; 6.25ug (log conc. 0.8)): 44.231%
% viability (MDA-MB-231 [1]; 25ug (log conc. 1.4)): 36.538%
% viability (MDA-MB-231 [1]; 100ug (log conc. 2)): 26.8697%
IC50 (MCF-10A): 72100 ± 1680 nM
Bcl-2 Conc (Bcl-2): 2.934±0.154^be ng/ml
Bax Conc (Bax): 0.36±0.0118^cef ng/ml
Apoptosis Early (MDA-MB-231 [3]; MDA): 16.75
Apoptosis Late (MDA-MB-231 [3]; MDA): 23.02
Apoptosis Total (MDA-MB-231 [3]; MDA): 46.28
Necrosis (MDA-MB-231 [3]; MDA): 6.51
% Apoptosis Early (MDA-MB-231 [3]): 16.75^beg %
% Apoptosis Late (MDA-MB-231 [3]): 23.02^eg %
% Apoptosis Total (MDA-MB-231 [3]): 46.28% and 46.28^be %
% Necrosis (MDA-MB-231 [3]): 6.51%
IC50 (MCF-7; MCF7, read-out: MCF-7 IC50): 13200 ± 380 nM
IC50 (MCF-7; [6]): 6.33 ± 0.38 µg/mL
% viability (MCF-7; MCF7, 0.4ug): 65.22%
% viability (MCF-7; MCF7, 1.6ug): 57.537%
% viability (MCF-7; MCF7, 6.3ug): 50.147%
% viability (MCF-7; MCF7, 25ug): 44.457%
% viability (MCF-7; MCF7, 100ug): 33.0205%
IC50 at 48 h (in vitro): 34.5 ± 1.68 µg/mL (≈ 72 µM)
viability at 48 h, 0.4 ug (in vitro): 81.4%
viability at 48 h, 1.6 ug (in vitro): 75.8%
viability at 48 h, 6.25 ug (in vitro): 62.5%
viability at 48 h, 25 ug (in vitro): 55%
viability at 48 h, 100 ug (in vitro): 39.6%

CC(=O)Oc1ccc2c(COC(=O)c3ccc(Cl)cc3)cc(=O)oc2c1 [Compound 14, (7-Acetoxy-2-oxo-2H-chromen-4-yl)methyl 4-chlorobenzoate]
%G0-G1 (MDA-MB-231 [2]; MDA-MB-231, IC50 concentration): 54.69^ikBD %
%G2/M (MDA-MB-231 [2]; MDA-MB-231, IC50 concentration): 7.09^dACDE %
%Pre-G1 (MDA-MB-231 [2]; MDA-MB-231, IC50 concentration): 41.02^iklmC %
%S (MDA-MB-231 [2]; MDA-MB-231, IC50 concentration): 38.22^ABE %
cell cycle arrest at S phase (MDA-MB-231 [2]): 1.38 folds
increase of apoptotic cells in pre-G1 phase (MDA-MB-231 [2]): 19.9 folds
IC50 (EGFR; [7]): 2440 nM
IC50 (EGFR; EGFR inhibition IC50): 2440 ± 51 nM
inhibition at 10 pg/mL (EGFR): 18%
inhibition at 0.0001 µg/mL (EGFR): 24%
inhibition at 0.001 µg/mL (EGFR): 44%
inhibition at 0.01 µg/mL (EGFR): 78%
Percentage above Reference IC50 (potency relative to erlotinib) (EGFR; reference Erlotinib): 5.942%
Caspase-9 Conc. (Caspase-9): 18.97±0.62^ghi ng/ml
Caspase-9 FLD (fold versus control) (Caspase-9): 4.37 folds
selectivity against MDA-MB-231 than MCF-7 (MDA-MB-231 [1]): 150 times
IC50 (MDA-MB-231 [1]; [4]): 1900 ± 30 nM
IC50 (MDA-MB-231 [1]; [5]): 0.64 ± 0.03 µg/mL
% viability (MDA-MB-231 [1]; 0.4ug (log conc. -0.41)): 53.505%
% viability (MDA-MB-231 [1]; 1.6ug (log conc. 0.19)): 43.354%
% viability (MDA-MB-231 [1]; 6.25ug (log conc. 0.8)): 34.773%
% viability (MDA-MB-231 [1]; 25ug (log conc. 1.4)): 26.136%
% viability (MDA-MB-231 [1]; 100ug (log conc. 2)): 15.4795%
IC50 (MCF-10A): 263000 ± 4770 nM
Bcl-2 Conc (Bcl-2): 2.984±0.12^gh ng/ml
Bcl-2 FLD (fold versus control) (Bcl-2): 0.329 folds
Bax Conc (Bax): 0.292±0.0106^ghi ng/ml
Bax FLD (fold versus control) (Bax): 4.9 folds
% Apoptosis Early (MDA-MB-231 [3]): 23.61^ilmn %
% Apoptosis Late (MDA-MB-231 [3]): 13.22^hik %
% Apoptosis Total (MDA-MB-231 [3]): 41.02% and 41.02^gh %
% Necrosis (MDA-MB-231 [3]): 4.19%
IC50 (MCF-7; MCF7, read-out: MCF-7 IC50): 285000 ± 6410 nM
IC50 (MCF-7; [6]): 106 ± 6.41 µg/mL
% viability (MCF-7; MCF7, 0.4ug): 88.083%
% viability (MCF-7; MCF7, 1.6ug): 77.238%
% viability (MCF-7; MCF7, 6.3ug): 66.961%
% viability (MCF-7; MCF7, 25ug): 60.34%
% viability (MCF-7; MCF7, 100ug): 50.7566%
IC50 at 48 h (in vitro): 97.9 ± 4.77 µg/mL (≈ 263 µM)
viability at 48 h, 0.4 ug (in vitro): 85.6%
viability at 48 h, 1.6 ug (in vitro): 77.6%
viability at 48 h, 6.25 ug (in vitro): 67.2%
viability at 48 h, 25 ug (in vitro): 59.5%
viability at 48 h, 100 ug (in vitro): 49.6%
